“Also recorded” adds a separate entry of the source. Where two headings read alike, the source gives them in different places.
Assays:
[1] = 5-day cytotoxicity assay with Cell Titer Glo readout, GALPC3; format: cell-based; conditions: human
Excerpt: (§1) Supplemental Table S2. CC50 values for INSTIs in 5- day cytotoxicity as says with Cell Titer
(§2) Expi293F GALPC3 GALHEP HUH7 MRC5 MT4 PBMC PBMC
(§3) Kidney Prostate Hepatoma Hepatoma Lung T-cell line Primary Primary
(§4) (embryonic) cancer cell cell line cell line fibroblast cells

Expi293F cells = experiment: Cell viability (CellTiterGlo) in the cellular RAG assay; format: cell-based, human; conditions: 48 hours after transfection, up to 10 µM (p8 up to 50 µM)
Protocol: After 48-h incubation at 37°C in a humidified 8% CO2 incubator, 100 µL of cell suspension was transferred to 96-well black assay plates (Corning). Each well of the assay plates then received 100 µL CellTiterGlo reagent and the resulting luminescence signal was read using the PHERAstar FSX plate reader (BMG Labtech, Germany).
Supplemental Figure S4. Cytotoxicity analysis of INSTIs in the cellular RAG assay using […]
Concentration (μM) Concentration (μM) Concentration (μM)
Expi293F cells were co-t ransfected with pMAXgfp- INV plasmid substrate, mCherry- core RAG1 , mCherry RAG2, with INSTIs added 2 hours after transfection. Six different concentrations of each […]
added to separate wells. % live cells normalized to 0.1% DMSO data are presented for INSTIs tested in cell viability (Cell- Titer Glo) assay 48 hours after transfection. BIC (n=5), CAB (n=3), concentrations tested. An ordinary one-way ANOVA with Dunnett's multiple comparisons test unmarked datapoints = not significant. […]
was used to compare % GFP levels to the DMSO control, *P ≤ 0.05, **P ≤ 0.01, ***P ≤ 0.001, (also on this page, place not known: live normalized 0.001 % live cells normalized DMSO 0.001 10 % live cells normalized DMSO 0.001 10 % live cells normalized to DMSO 0.001 10 % live cells normalized to DMSO E xpi293F cells co-transfected pMAXgfp-INV mCherry-core RAG1, 5-fold 10 to % live cells normalized to DMSO (n=3) one -way to % to DMSO)

[2] = 5-day cytotoxicity assay with Cell Titer Glo readout, HUH7; format: cell-based; conditions: human
Excerpt: as §1, §2, §3, §4

[3] = 5-day cytotoxicity assay with Cell Titer Glo readout, MRC5; format: cell-based; conditions: human
Excerpt: as §1, §2, §3, §4

[4] = system: murine mCherry-core RAG1 / mCherry-RAG2 V(D)J recombination in Expi293F cells; experiment: Extrachromosomal cell-based V(D)J recombination assay (GFP reporter, flow cytometry); conditions: for Effect on percentage of GFP-positive cells / RAG recombination: across concentrations tested, 48 h post-transfection
Excerpt: To further evaluate the effect of HIV-1 integrase inhibitors on RAG activity in a cellular context, we optimized a novel extrachromosomal cell-based V(D)J recombination assay, enabling assessment of multiple compounds in a dose–response manner by flow cytometry ([33]). The schematic of FL murine RAG1 and RAG2 proteins, including the active site residues (DDE motif) in RAG1 and catalytically essential core regions of each protein, are shown in Fig. 5A. The cell-based assay used vectors that encode for the core RAG1 protein (instead of the FL version) and FL murine RAG2 expressed as C-terminal fusions to mCherry, termed mCherry-core RAG1 and mCherry-RAG2. The core regions of each RAG protein are sufficient to catalyze V(D)J recombination, whereas the non-core regions function to regulate the recombination reaction ([13]). […] The consensus RSS used in this assay contains a conserved heptamer and nonamer separated by 12 or 23 non-conserved bp (12RSS and 23RSS) (Fig. 5B). A general schematic of the design for the plasmid substrate with the 12RSS and 23RSS orientations before and after V(D)J recombination is presented in Fig. 5C. More specifically, the plasmid substrate pMAXgfp-INV was designed with a 12RSS and a 23RSS flanking each side of the Pontellina plumata green fluorescent protein gene (termed maxGFP), where the gene is in an inverted orientation relative to the CMV promoter (Fig. 5D). The RSSs are positioned in a co-linear orientation, such that successful V(D)J recombination activity will result in inversion of the maxGFP gene to place it in a transcriptionally active orientation with resulting expression of GFP. Detection of GFP-expressing cells using microscopy and flow cytometry was used as a direct readout of V(D)J recombination activity.
For the recombination assay, the pMAXgfp-INV plasmid substrate and RAG1/RAG2 expression vectors (mCherry-core RAG1 and mCherry-RAG2) were transiently transfected into Expi293 cells in the absence or presence of integrase inhibitors and were assessed via microscopy and flow cytometry. The fluorescence signal from the mCherry-tag is used to assess transfection efficiency of RAG1/RAG2 vectors (Fig. 6A). We observed that transfection of the pMAXgfp-INV substrate into Expi293 cells with RAG1/RAG2 expression vectors yielded robust GFP expression 48 h post-transfection in the cells treated with vehicle control (0.1% dimethyl sulfoxide [DMSO]) (Fig. 6A). […] NU7026 inhibits double-strand break repair, which is a necessary step after DNA cleavage by RAG enzymes, and thus serves as an indirect inhibitor of RAG activity ([35]).
To test the effect of HIV-1 integrase inhibitors on V(D)J recombination activity, we optimized an extrachromosomal cell-based V(D)J recombination assay ([33]). Briefly, Expi293 cells were plated at 1 × 10^6 cells/mL in six-well plates in Gibco Expi293 expression media the day before transfection. The next day, the Expi293 cells were co-transfected with three separate vectors, pMAXgfp-INV plasmid substrate, mCherry-core RAG1, and mCherry-RAG2 expression vectors with a 4:1 transfection reagent:DNA ratio using ExpiFectamine 293 transfection reagent (Gibco). Vehicle or candidate inhibitors were added to cell samples 2 h after transfection, with six different concentrations of each inhibitor added to separate wells. Fivefold dilutions for each inhibitor starting from 10 µM were tested.
Experiments were performed with six separate inhibitors in at least three independent experiments. Two negative control conditions for recombination activity were performed in parallel and include (i) transfections in the presence of NU7026 at 30 and 50 µM (Abcam) and (ii) using a modified pMAXgfp-INV substrate containing two 12RSSs (instead of one 12RSS and one 23RSS) that is inefficiently recombined by the RAG proteins. Vehicle control (0.1% DMSO) served as the positive control for GFP expression. The fluorescence signal from the mCherry tag was used to assess transfection efficiency. […]

PBMC primary cells = experiment: 5-day cytotoxicity assay with Cell Titer Glo readout, PBMC; format: cell-based
Excerpt: as §1, §2, §3, §4

[5] = as above; format: cell-based
Excerpt: as §1, §2, §3, §4

[6] = 5-day cytotoxicity assay with Cell Titer Glo readout, Expi293F; format: cell-based; conditions: human
Excerpt: as §1, §2, §3, §4

[7] = 5-day cytotoxicity assay with Cell Titer Glo readout, GALHEPG2; format: cell-based; conditions: human
Excerpt: as §1, §2, §3, §4

[8] = 5-day cytotoxicity assay with Cell Titer Glo readout, MT4; format: cell-based; conditions: human
Excerpt: as §1, §2, §3, §4

| Structure (SMILES) | CC50 at 5 day [1] [µM] | Cellular toxicity, % live cells normalized to 0.1% DMSO (Expi293F cells) | CC50 at 5 day [2] [µM] | CC50 at 5 day [3] [µM] | Effect on percentage of GFP-positive cells / RAG recombination [4] | CC50 (PBMC primary cells; 5 day) [µM] | CC50 at 5 day ([5]; CC50) [µM] | CC50 at 5 day [6] [µM] | CC50 at 5 day [7] [µM] | CC50 at 5 day [8] [µM] | CC50 at 5 day ([1]; GALPC3, 5-day, Cell Titer Glo, read-out: CC50) [µM] | CC50 at 5 day ([2]; HUH7, 5-day, Cell Titer Glo, read-out: CC50) [µM] | CC50 at 5 day ([3]; MRC5, 5-day, Cell Titer Glo, read-out: CC50) [µM] | CC50 (PBMC primary cells; PBMC Lot2, 5-day, Cell Titer Glo, read-out: CC50) [µM] | CC50 at 5 day ([5]; PBMC Lot1, 5-day, Cell Titer Glo, read-out: CC50) [µM] | CC50 at 5 day ([6]; Expi293F, 5-day, Cell Titer Glo, read-out: CC50) [µM] | CC50 at 5 day ([7]; GALHEPG2, 5-day, Cell Titer Glo, read-out: CC50) [µM] | CC50 at 5 day ([8]; MT4, 5-day, Cell Titer Glo, read-out: CC50) [µM] | IC50 ([4]; Mus musculus, Expi293F, compound added 2 h after transfection, read 48 h post-transfection, serum-free media, read-out: IC50 in cellular V(D)J recombination assay (% GFP-positive cells)) [µM] |
| --- | --- | --- | --- | --- | --- | --- | --- | --- | --- | --- | --- | --- | --- | --- | --- | --- | --- | --- | --- |
| O=C(NCc1c(F)cc(F)cc1F)c1cn2c(c(O)c1=O)C(=O)N1[C@H]3CC[C@H](C3)O[C@@H]1C2 [BIC, bictegravir] | > 44.4 | minimal effects on cellular toxicity | 38 | > 44.4 | did not observe a reduction in percentage of GFP-positive cells; also recorded: do not show inhibitory activity | 24.2 | 28.5 | 46 | 17.4 | 2.59 |  |  |  |  |  |  |  |  |  |
| C[C@H]1CO[C@@H]2Cn3cc(C(=O)NCc4ccc(F)cc4F)c(=O)c(O)c3C(=O)N12 [CAB, cabotegravir] | > 44.4 | minimal effects on cellular toxicity | 21.5 | 28.1 | did not observe a reduction in percentage of GFP-positive cells; also recorded: do not show inhibitory activity | 29.5 | 30 | > 100 | 37.9 | 5.25 |  |  |  |  |  |  |  |  |  |
| C[C@@H]1CCO[C@H]2Cn3cc(C(=O)NCc4ccc(F)cc4F)c(=O)c(O)c3C(=O)N12 [DTG, dolutegravir] | > 44.4 | minimal effects on cellular toxicity | 28.7 | 38.2 | did not observe a reduction in percentage of GFP-positive cells; also recorded: do not show inhibitory activity | 17.9 | 28.4 | 53.6 | > 44.4 | 7.53 |  |  |  |  |  |  |  |  |  |
| COc1cc2c(cc1Cc1cccc(Cl)c1F)c(=O)c(C(=O)O)cn2[C@H](CO)C(C)C [EVG, elvitegravir] | 20.8 | minimal effects on cellular toxicity | 20.4 | 14.3 | do not show inhibitory activity | 14.1 | 14.6 | 32.5 | 9.02 | 3.75 |  |  |  |  |  |  |  |  |  |
| Cc1nnc(C(=O)NC(C)(C)c2nc(C(=O)NCc3ccc(F)cc3)c(O)c(=O)n2C)o1 [RAL, raltegravir] |  | minimal effects on cellular toxicity |  |  | did not observe a reduction in percentage of GFP-positive cells; also recorded: do not show inhibitory activity |  |  |  |  |  | > 44.4 | > 44.4 | > 44.4 | > 44.3 | > 44.3 | > 100 | > 44.4 | > 50 |  |
| O=C(/C=C(\O)c1nnn[nH]1)c1c[nH]c2ccc(Cl)cc12 [p8, 5-CITEP] | > 44.4 | minimal effects on cellular toxicity | > 44.4 | > 44.4 |  | > 44.3 | > 44.3 | > 100 | > 44.4 | > 50 |  |  |  |  |  |  |  |  | > 50 |

From article PMC11705955, “Lack of activity of HIV-1 integrase strand-transfer inhibitors on recombinase activating gene (RAG) activity at clinically relevant concentrations” (Microbiology Spectrum, 2024)
